# From patent US6469055B2, “Compositions and methods for treatment of neurological disorders and neurodegenerative diseases” (Massachusetts Institute of Technology, priority 1996, dated 2002)
# Entries after “also recorded” stand apart in the source; their conditions may differ.
# Columns and labels:
# [1] = tested on: cellular cAMP levels; assay: cAMP assay in cultured astrocytes; format: cell-based, rat
# Method: In brief, after aspirating the medium and rinsing twice with 1 ml ice cold PBS, the cells were scraped in 0.8 ml ice cold ethanol and sonicated. […] After resuspension in 120 μl Tris/EDTA buffer, two duplicate samples of 50 μl each were mixed with the binding protein, [8-^3H] adenosine 3′, 5′-cyclic phosphate tracer and incubated at 2-4° C. for 2 h. A charcoal suspension (100 μl) was added to the samples before centrifugation and 200 μl of the supernatant were removed for. scintillation counting. The amount of cyclic AMP (pmol/mg protein) was estimated by comparing to known standards, and normalized to the amounts of whole cell protein as determined by the bicinchoninic acid assay (Sigma).
# [2] = tested on: APP holoprotein; assay: Cell-associated APP (APP holoprotein), Western blot, cultured cortical astrocytes; conditions: for effect on cell-associated APP (APP holoprotein): PMA 5 μM or DNF 100 μM; for levels of cellular and amyloidogenic APP holoprotein: aspirin or resveratrol, 1 h, nano- or micromolar range, cultured astrocytes or neurons
# Method: Astrocytes are isolated from cortices from postnatal rats. […] In brief, dissected cortices were dissociated by trypsinization and trituration through a flame-polished Pasteur pipette. Cells were plated onto poly-L-lysine coated 35- or 100 mm culture dishes at densities of about 10-25 cells/mm^2. […] Media are changed twice weekly. […] Pharmacological manipulations are performed in serum-free media on 7-14 DIV confluent astrocytes.
# To detect cell-associated protein (APP or GFAP), astrocytes from 35 mm dishes are scraped in lysis buffer (60 mM Tris/HCl, 4% SDS, 20% glycerol, 1 mM dithiothreitol), ultrasonicated and boiled for 5 min. The total amount of cell protein per dish, estimated using the bicinchoninic acid assay, is not altered by pharmacological treatments. Bromphenol blue (0.1%) is added to each sample and equal amounts of protein (˜75 mg/lane) are loaded on 10% SDS-polyacrylamide gels.
# (§2) The amount of media or cell protein loaded for sodium dodecyl sulfate-polyacrylamide gel electrophoresis (10-20% SDS PAGE; Bio-Rad) was normalized for the amount of protein per sample. […] After 2×10 min rinses in TBST, the membranes were incubated in TBST containing an appropriate antibody. Monoclonal antibodies 22C11 and GFAP (both from Boehringer-Mannheim) were used to detect the N-terminus of APP and glial fibrillary acidic protein respectively; antisera R37 and R98 (gifts of Dr. F. Kametani, Tokyo Institute of Psychiatry) were used to detected the C-terminus and KPI motifs of APP respectively; antiserum C8 (gift of Dr. D. Selkoe, Women's Hospital, Harvard Medical School, Cambridge, Mass.) was used to detect the C-terminus of APP.
# After an overnight incubation, membranes were rinsed in TBST before being treated for 1h with a peroxidase-linked secondary antibody. After several rinses in TBST, protein bands were visualized on Kodak X-AR films by an enhanced chemiluminescence method (Amersham). Optical densities of the protein bands were quantitated by laser scanning densitometry (LKB, Bromma, Sweden), and normalized to the densities of those bands generated under control conditions.
# [3] = tested on: astrocytes; assay: Process formation of cultured astrocytes; format: cell-based, rat
# [4] = tested on: APP synthesis; assay: APP synthesis (APP mRNA and holoprotein) in cultured cortical astrocytes; format: cell-based, rat
# [5] = tested on: APP mRNA; assay: APP mRNA, Northern blot, cultured cortical astrocytes
# Method: Pharmacological manipulations are performed in serum-free media on 7-14 DIV confluent astrocytes.
# Total RNA from astrocytes grown on 100 mm dishes is extracted by the acid guanidium thiocyanate-phenol-chloroform method. […] In brief, the medium was aspirated and the cells were scraped in 1 mL of TRI Reagent. After incubation for 15 min at room temperature, 0.2 ml chloroform was added, mixed vigorously with TRI Reagent and the mixture was stored for another 15 min at room temperature. After centrifugation at 12,000 g for 15 min, 0.5 ml isopropanol was added to the aqueous phase of the mixture to precipitate RNA. The RNA pellet collected by centrifugation (12,000 g, 15 min at 4° C.) was washed with 70% ethanol. once and solubilized in an appropriate amount of Formazol (Molecular Research Center, Cincinnati, Ohio). […] RNA was blotted onto Hybond polyvinyl membranes by overnight capillary transfer and fixed onto the membranes by UV light illumination. […] Membranes were dried and exposed to Kodak X-ray film for 24-48 h with an Amersham enhancer sheet. The relative amounts of mRNA obtained by hybridization were estimated using densitometric analysis of autoradiographs. The levels of APP mRNA were normalized to the amounts of G3PDH mRNA and expressed as a ratio to the levels of untreated, control cells.
# [6] = tested on: glial fibrillary acidic protein (GFAP); assay: GFAP protein in cultured astrocytes, Western blot; format: cell-based, rat; conditions: PG E2 treatment
# Method: To detect cell-associated protein (APP or GFAP), astrocytes from 35 mm dishes are scraped in lysis buffer (60 mM Tris/HCl, 4% SDS, 20% glycerol, 1 mM dithiothreitol), ultrasonicated and boiled for 5 min. […] Bromphenol blue (0.1%) is added to each sample and equal amounts of protein (˜75 mg/lane) are loaded on 10% SDS-polyacrylamide gels.
# as §2
# After an overnight incubation, membranes were rinsed in TBST before being treated for 1h with a peroxidase-linked secondary antibody. After several rinses in TBST, protein bands were visualized on Kodak X-AR films by an enhanced chemiluminescence method (Amersham). […]
# [7] = tested on: secreted APP (APPs); assay: APPs secretion into the media of cultured cortical astrocytes, Western blot; format: cell-based, rat; conditions: for secretion of soluble APPs: aspirin or resveratrol, nano- or micromolar range, cultured astrocytes or neurons
# Method: Astrocytes are isolated from cortices from postnatal rats. […] Media are changed twice weekly.
# To detect secreted APP, culture media was collected after drug treatments and phenylmethylsulfonyl fluoride was added to a final concentration of 2 mM. The media samples were then applied to Sephadex PD-10 desalting columns (Pharmacia) and eluted with distilled water. Column eluates were frozen and dried by vacuum centrifugation. The lyophilized proteins were reconstituted in 25 μL water followed by 25 μL of 2X Laemmli gel loading buffer, and boiled for 5 min.
# (§1) Assays of PI hydrolysis are conducted as previously reported. Also, measurements of APPs are conducted as previously reported.
# [8] = tested on: APP holoprotein; assay: Brain APP holoprotein in rats injected with p-chloroamphetamine (PCA) with or without aspirin; format: in vivo, rat; conditions: for brain APP holoprotein relative to control levels: rats, injections of aspirin alone
# Excerpt: Neuronal injury can stimulate prostaglandin production., and thereby stimulate APP overexpression. We injected rats with para-chloroamphetamine (PCA), a neurotoxin which causes a loss of serotoninergic terminals in the brain.
# [9] = tested on: PI hydrolysis; assay: PI hydrolysis in cultured astrocytes; format: cell-based, rat; conditions: propranolol 50 μM with NE 50 μM
# Method: as §1
# [10] = propranolol 50 μM with NE 50 μM
compound,measurement,setting,value
"CCCCC[C@H](O)/C=C/[C@H]1[C@H](O)CC(=O)[C@@H]1C/C=C\CCCC(=O)O [PG E2, prostaglandin E2]",cellular cAMP levels compared to untreated cells,[1]; 1 μg PG E2 (so in the source),27 fold
same,cellular cAMP levels compared to untreated cells,[1]; 10 μg PG E2 (so in the source),106 fold
same,cellular cAMP levels compared to untreated cells,[1]; 100 μg PG E2 (so in the source),227 fold
same,cAMP production,[1]; PG E2 0.1 μM,did not stimulate
same,cAMP versus PG E2 concentration,"[1]; PG E2 1, 10 or 100 μM",Concentration-dependent elevations
same,effect on APP holoprotein,[2]; PG E2 0.1 μM,did not significantly alter; also recorded: not 0.1 μM PG E2
same,"cellular APP holoprotein, of untreated control cells","[2]; PG E2 1 μM, 24 h",1.4 fold
same,"cellular APP holoprotein, of untreated control cells","[2]; PG E2 10 μM, 24 h",1.9 fold
same,"cellular APP holoprotein, of untreated control cells","[2]; PG E2 100 μM, 24 h",2.3 fold
same,effect on APP holoprotein,"[2]; PG E2 1, 10 or 100 μM, 24 h",stimulated increases
same,KPI-containing APP isoforms,"[2]; PG E2 treatment, antiserum R98",increases
same,process formation in astrocytes,[3],induced
same,"effect on APP synthesis, shorter treatment","[4]; PG E2 10 μM, 6 or 12 h",did not reliably increase
same,effect on APP mRNA,[5]; PG E2 0.1 μM,did not significantly alter; also recorded: not 0.1 μM PG E2
same,astrocytic APP mRNA relative to untreated cells,"[5]; PG E2 1, 10 or 100 μM, 24 h",significantly increased; also recorded: stimulated increases
same,levels of GFAP,[6],increased
same,APP secreted in the media,"[7]; PG E2 1, 10 or 100 μM, 24 h, mAb 22C11, R37 or C8",increased
same,APP holoprotein (~130 kD) in the media,"[7]; PG E2, 24 h, antisera C8",increased amounts
"CCCCCCCCCCCCCC(=O)O[C@@H]1[C@@H](C)[C@@]2(O)[C@@H](C=C(CO)C[C@]3(O)C(=O)C(C)=C[C@@H]23)[C@@H]2C(C)(C)[C@]12OC(C)=O [PMA, phorbol 12-myristate 13-acetate]",effect on cell-associated APP (APP holoprotein),[2]; 24 h,no effect
same,effect on cell-associated APP (APP holoprotein),"[2]; 24 h, listed as phorbol 12-myristate 13-acetate",does not increase
same,effect on APP mRNA,[5]; PMA 5 μM or dexnorfenfluramine 100 μM,does not increase
same,APPs secretion relative to untreated cells,"[7]; PMA 5 μM or DNF 100 μM, 1 hour, mAb22C11",significantly increases
same,"APPs secretion, to that of untreated cells","[7]; PMA 5 μM, dexnorfenfluramine 100 μM",~3.0 fold
CCN(CC)CC.Nc1ncnc2c1ncn2[C@@H]1O[C@@H]2COP(O)(=S)O[C@H]2[C@H]1O (stereo partly drawn) [Sp-cAMP triethylamine],cellular APP holoprotein compared to untreated cells,"[2]; Sp-cAMP triethylamine 50 μM, 24 h, antiserum R98",1.6 fold
same,cellular APP holoprotein compared to untreated cells,"[2]; Sp-cAMP triethylamine 100 μM, 24 h, antiserum R98",1.9 fold
same,cellular APP holoprotein compared to untreated cells,"[2]; Sp-cAMP triethylamine 150 μM, 24 h, antiserum R98",2.2 fold
same,effect on astrocytic APP holoprotein,[2]; Sp-cAMP triethylamine in the absence of PG E2,sufficient to stimulate increases
Cc1c(C(=O)c2cccc3ccccc23)c2cccc3c2n1[C@H](CN1CCOCC1)CO3 [Win55212],effect on APP synthesis,[4],decrease or inhibit
CC(=O)Oc1ccccc1C(=O)O [aspirin],levels of cellular and amyloidogenic APP holoprotein,[2],decreased levels
same,levels of cellular and amyloidogenic APP holoprotein,[2]; listed as Aspirin,decreases
same,secretion of soluble APPs,[7]; 1 h,increase
same,secretion of soluble APPs,"[7]; 1 h, listed as Aspirin",promotes
same,APP holoprotein levels versus uninjected control rats / effect on the PCA-induced increase,[8]; rats injected with both aspirin and PCA,did not differ; also recorded: attenuated
same,brain APP holoprotein relative to control levels,[8],significant decrease
same,brain APP holoprotein relative to control levels,[8]; listed as Aspirin,"small, but significant decrease"
CC(C)NCC(O)c1ccc(O)c(O)c1 (stereo not drawn) [isoproterenol],APP mRNA levels versus untreated cells,"[5]; 24 h, NE 50 or 100 μM, isoproterenol 50 μM, Northern blot",about 1.6 fold
same,"APP mRNA, of untreated cells","[5]; NE 50 or 100 μM, isoproterenol 50 μM",180%
same,effect on APP mRNA levels above controls,"[5]; about 24 h, NE 50 or 100 μM, Iso 50 μM, 8Br-cAMP […] μM",mimicked
CN1CCCC1c1cccnc1.O=C(O)C(O)C(O)C(=O)O.O=C(O)C(O)C(O)C(=O)O (stereo not drawn) [nicotine ditartrate],astrocytic APP holoprotein relative to untreated cells,"[2]; nicotine ditartrate 1, 10 or 100 μM, 24 h, p<0.05",significantly increased
same,APP secreted in the media,"[7]; nicotine ditartrate 1, 10 or 100 μM, 1 h",decreased
CC(C)NCC(O)COc1cccc2ccccc12 (stereo not drawn) [propranolol],effect on the NE-induced increase in PI hydrolysis,[9],no effect
same,effect on the NE-induced increase in cAMP formation,[1]; [10],inhibits
same,effect on basal APP protein levels,[2]; propranolol 50 μM on its own,no significant effect
same,effect on the NE-stimulated increase in APP holoprotein,[2]; [10],inhibited
same,effect on APP synthesis,[4],decrease or inhibit
same,effect on the NE- or isoproterenol-stimulated increase in APP mRNA,[5]; propranolol 50 μM,to baseline levels; also recorded: significantly inhibited; also recorded: abolished
Oc1ccc(C=Cc2cc(O)cc(O)c2)cc1 [resveratrol],levels of cellular and amyloidogenic APP holoprotein,[2],decreased levels; also recorded: decreases
same,secretion of soluble APPs,[7]; 1 h,increase; also recorded: promotes
